Reference: PubChem BioAssay (NCI)
Values joined by “and” are separate entries in the source; they are usually repeats but may differ in a detail not shown here. Equal values may be shown once.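 Briefly, cells in 96-well plates were exposed to five compound concentrations for 48 h, and endpoints were estimated by linear interpolation. The concentration for 50% growth inhibition is given as GI50. Definition used: TGI = concentration required for complete inhibition of growth.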

Assays:
Assay in all cases: growth of human tumour cells (NCI), 48 h
786-0 renal = tested on: 786-0 renal
A498 renal = tested on: A498 renal
A549 NSCLC = tested on: A549 NSCLC
ACHN renal = tested on: ACHN renal
BT-549 breast = tested on: BT-549 breast
CAKI-1 renal = tested on: CAKI-1 renal
CCRF-CEM leukemia = tested on: CCRF-CEM leukemia
COLO 205 colon = tested on: COLO 205 colon
DU-145 prostate = tested on: DU-145 prostate
HCT-116 colon = tested on: HCT-116 colon
HCT-15 colon = tested on: HCT-15 colon
HL-60(TB) leukemia = tested on: HL-60(TB) leukemia
HOP-62 NSCLC = tested on: HOP-62 NSCLC
HS 578T breast = tested on: HS 578T breast
HT29 colon = tested on: HT29 colon
IGROV1 ovarian = tested on: IGROV1 ovarian
K-562 leukemia = tested on: K-562 leukemia
KM12 colon = tested on: KM12 colon
LOX IMVI melanoma = tested on: LOX IMVI melanoma
M14 melanoma = tested on: M14 melanoma
MALME-3M melanoma = tested on: MALME-3M melanoma
MCF7 breast = tested on: MCF7 breast
MDA-MB-231 breast = tested on: MDA-MB-231 breast
MDA-MB-435 = tested on: MDA-MB-435
MOLT-4 leukemia = tested on: MOLT-4 leukemia
NCI-H226 lung = tested on: NCI-H226 lung
NCI-H23 lung = tested on: NCI-H23 lung
NCI-H460 lung = tested on: NCI-H460 lung
NCI-H522 lung = tested on: NCI-H522 lung
NCI/ADR-RES ovarian = tested on: NCI/ADR-RES ovarian
OVCAR-3 ovarian = tested on: OVCAR-3 ovarian
OVCAR-4 ovarian = tested on: OVCAR-4 ovarian
OVCAR-5 ovarian = tested on: OVCAR-5 ovarian
OVCAR-8 ovarian = tested on: OVCAR-8 ovarian
PC-3 prostate = tested on: PC-3 prostate
RPMI-8226 leukemia = tested on: RPMI-8226 leukemia
SF-268 CNS = tested on: SF-268 CNS
SF-295 CNS = tested on: SF-295 CNS
SF-539 CNS = tested on: SF-539 CNS
SK-MEL-2 melanoma = tested on: SK-MEL-2 melanoma
SK-MEL-28 melanoma = tested on: SK-MEL-28 melanoma
SK-MEL-5 melanoma = tested on: SK-MEL-5 melanoma
SK-OV-3 ovarian = tested on: SK-OV-3 ovarian
SN12C renal = tested on: SN12C renal
SNB-19 CNS = tested on: SNB-19 CNS
SNB-75 CNS = tested on: SNB-75 CNS
SR leukemia = tested on: SR leukemia
SW-620 colon = tested on: SW-620 colon
T-47D breast = tested on: T-47D breast
U251 CNS = tested on: U251 CNS
UACC-257 melanoma = tested on: UACC-257 melanoma
UO-31 renal = tested on: UO-31 renal

`COC(=O)[C@H](Cc1cn(C)cn1)NC(=O)[C@H](CC(=O)OCc1ccccc1)NC(=O)Nc1cc(C(F)(F)F)cc(C(F)(F)F)c1` showed a GI50 (786-0 renal) of 10.9 µM, a TGI (786-0 renal) of 24.2 µM and a GI50 (A498 renal) of 12.8 µM. The TGI (A498 renal) was 25.4 µM, the GI50 (A549 NSCLC) was 11.6 µM and the TGI (A549 NSCLC) was 25.9 µM. The GI50 (ACHN renal) was 10.4 µM, the TGI (ACHN renal) was 24 µM and the GI50 (BT-549 breast) was 12 µM. It also gave a TGI (BT-549 breast) of 25.8 µM, a GI50 (CAKI-1 renal) of 14.1 µM and a TGI (CAKI-1 renal) of 27.8 µM. The GI50 (CCRF-CEM leukemia) was 9.81 µM, the TGI (CCRF-CEM leukemia) was 24.7 µM and the GI50 (COLO 205 colon) was 3.79 µM. The TGI (COLO 205 colon) was 13.8 µM, the GI50 (DU-145 prostate) was 6.18 µM and the TGI (DU-145 prostate) was 19.3 µM. For the same compound, the GI50 (HCT-116 colon) was 12.5 µM, the TGI (HCT-116 colon) was 40.7 µM and the GI50 (HCT-15 colon) was 17.9 µM. For the same compound, the TGI (HCT-15 colon) was > 100 µM, the GI50 (HL-60(TB) leukemia) was 12.3 µM and the TGI (HL-60(TB) leukemia) was 27.1 µM. For the same compound, the GI50 (HOP-62 NSCLC) was 5.03 µM, the TGI (HOP-62 NSCLC) was 16.9 µM and the GI50 (HS 578T breast) was 2.8 µM. The TGI (HS 578T breast) was 8.09 µM, the GI50 (HT29 colon) was 13.9 µM and the TGI (HT29 colon) was 28.8 µM. For the same compound, the GI50 (IGROV1 ovarian) was 14.5 µM, the TGI (IGROV1 ovarian) was 29.2 µM and the GI50 (K-562 leukemia) was 4.15 µM. For the same compound, the TGI (K-562 leukemia) was 15.7 µM, the GI50 (KM12 colon) was 14 µM and the TGI (KM12 colon) was 30.7 µM. It also gave a GI50 (LOX IMVI melanoma) of 2.96 µM, a TGI (LOX IMVI melanoma) of 8.9 µM and a GI50 (M14 melanoma) of 3.38 µM. The TGI (M14 melanoma) was 11.3 µM, the GI50 (MALME-3M melanoma) was 3.28 µM and the TGI (MALME-3M melanoma) was 10.4 µM. For the same compound, the GI50 (MCF7 breast) was 3.74 µM, the TGI (MCF7 breast) was > 100 µM and the GI50 (MDA-MB-231 breast) was 10.9 µM. For the same compound, the TGI (MDA-MB-231 breast) was 23.3 µM, the GI50 (MDA-MB-435) was 5.9 µM and the TGI (MDA-MB-435) was 18.8 µM. For the same compound, the GI50 (MOLT-4 leukemia) was 17.1 µM, the TGI (MOLT-4 leukemia) was 36.6 µM and the GI50 (NCI-H226 lung) was 16.3 µM. For the same compound, the TGI (NCI-H226 lung) was 34.5 µM, the GI50 (NCI-H23 lung) was 15.8 µM and the TGI (NCI-H23 lung) was 30.7 µM. It also gave a GI50 (NCI-H460 lung) of 13.4 µM, a TGI (NCI-H460 lung) of 28.7 µM and a GI50 (NCI-H522 lung) of 8.53 µM. The TGI (NCI-H522 lung) was 21.4 µM, the GI50 (NCI/ADR-RES ovarian) was 17.3 µM and the TGI (NCI/ADR-RES ovarian) was 35.6 µM. For the same compound, the GI50 (OVCAR-3 ovarian) was 2.5 µM, the TGI (OVCAR-3 ovarian) was 6.25 µM and the GI50 (OVCAR-4 ovarian) was 11.6 µM. It also gave a TGI (OVCAR-4 ovarian) of 27.1 µM, a GI50 (OVCAR-5 ovarian) of 17.2 µM and a TGI (OVCAR-5 ovarian) of 34.2 µM. It also gave a GI50 (OVCAR-8 ovarian) of 4.49 µM, a TGI (OVCAR-8 ovarian) of 16.9 µM and a GI50 (PC-3 prostate) of 12.7 µM. The TGI (PC-3 prostate) was 25.7 µM, the GI50 (RPMI-8226 leukemia) was 4.24 µM and the TGI (RPMI-8226 leukemia) was 17.5 µM. The GI50 (SF-268 CNS) was 4.51 µM, the TGI (SF-268 CNS) was 18.1 µM and the GI50 (SF-295 CNS) was 10.9 µM. It also gave a TGI (SF-295 CNS) of 24 µM, a GI50 (SF-539 CNS) of 12.4 µM and a TGI (SF-539 CNS) of 25.6 µM. It also gave a GI50 (SK-MEL-2 melanoma) of 3.89 µM, a TGI (SK-MEL-2 melanoma) of 12.6 µM and a GI50 (SK-MEL-28 melanoma) of 9.51 µM. For the same compound, the TGI (SK-MEL-28 melanoma) was 21.6 µM, the GI50 (SK-MEL-5 melanoma) was 12.2 µM and the TGI (SK-MEL-5 melanoma) was 24.6 µM. For the same compound, the GI50 (SK-OV-3 ovarian) was 9.07 µM, the TGI (SK-OV-3 ovarian) was 21.4 µM and the GI50 (SN12C renal) was 4.79 µM. The TGI (SN12C renal) was 17.3 µM, the GI50 (SNB-19 CNS) was 13.8 µM and the TGI (SNB-19 CNS) was 28.5 µM. The GI50 (SNB-75 CNS) was 11.8 µM, the TGI (SNB-75 CNS) was 24.1 µM and the GI50 (SR leukemia) was 3.67 µM and 2.04 µM. For the same compound, the TGI (SR leukemia) was 9.41 µM and 4.34 µM, the GI50 (SW-620 colon) was 6.66 µM and the TGI (SW-620 colon) was 21.1 µM. The GI50 (T-47D breast) was 7.38 µM and 4.83 µM, the TGI (T-47D breast) was 18.6 µM and the GI50 (U251 CNS) was 2.61 µM. For the same compound, the TGI (U251 CNS) was 7.85 µM, the GI50 (UACC-257 melanoma) was 6.34 µM and the TGI (UACC-257 melanoma) was 19.1 µM. It also gave a GI50 (UO-31 renal) of 11.5 µM and a TGI (UO-31 renal) of 24.2 µM.
